Data set [1] can be described thus: In vivo pharmacokinetic test in rats. The settings on record: for clearance / half-life / Vd: iv; for In vivo pharmacokinetic properties (conclusion): Tables 8 and 9. Set-up: species or system Wistar rats. The procedure: Experimental animals: male Wistar rats, 6 rats/compound, body weight 180-220 g, purchased from Shandong University, certificate no.: SCXK ( ? ) 20090001.
Experimental samples: Compound 1, Compound 29 and Compound 30 of the present invention, each of them is prepared according to the methods of the above examples, and dissolved in physiological saline before test.
Administration: as for intravenous push (I.V), Compound 1, Compound 29, Compound 30 were administered in a dose of 5 mg/kg, and a volume of 2 mL/kg; as for intragastric administration (P.O), Compound 1, Compound 29, Compound 30 were administered in a dose of 5 mg/kg, and a volume of 2 mL/kg. The rats were fasted without water deprivation for […] administration, and fed after 4 hours from the administration.
Blood collection: 0 h, 0.083 h, 0.25 h, 0.5 h, 1 h, 2 h, 4 h, 8 h, 24 h, at each time point, about 150 μL of whole blood was collected, centrifuged at 4° C. and 8000 rpm for 6 min using a low-temperature high-speed centrifuge, the separated plasma was frozen and stored at −80° C. in a refrigerator.
Analysis of plasma samples: as for Compound 1, Compound 29, Compound 30, 50 μL of plasma was taken, added with 120 μL internal standard solution (Tolbutamide, 5 ng/mL MeOH solution), subjected to 1500 rpm vortex for 2 min, then centrifuged at 14000 rpm for 5 min, the supernatant was collected, and analyzed by using LC-MS/MS. Calculation formula: absolute bioavailability F %=[AUC]INF(PO)*Dose(IV)/[AUC]INF(IV)*Dose(PO)
Wherein, AUCINF represents area under drug-time curve0→∞; Cmax represents peak drug concentration in blood; Tmax represents a time for reaching peak drug concentration in blood; F % represents absolute bioavailability; CL represents clearance rate; Vss represents apparent volume of distribution; T1/2 represents half-life period.

Data set [2] relates to reflux esophagitis in rats. Put plainly: Effects on reflux esophagitis in rats. The class given is in vivo, Wistar rats. Set-up: Esophagitis index: scale not given here. The note with it: for Esophagitis index / Esophagus injury score / Injury status: 20 mg/kg through duodenum, 5 h; for Esophagitis index: 6 rats per group, average ± SD; for Esophagus injury score / Injury status: individual rats; for Protection effect on reflux esophagitis in rats (conclusion): in comparison with the model group. Here is the method: The rats were etherized, laparotomized, pylorus ligated, and ligated at the part between glandular stomach and rumen. After ligation, the drugs were immediately administered through duodenum, in which the groups of the test samples were administered with test samples in 20 mg/kg, the model group was administered with the same volume of solvent, and the abdomens were then closed. The rats were released to the fasting cage, subjected to fasting and water deprivation for 5 h and then executed by air embolism. The stomach and esophagus were taken out together, fixed with 1% formaldehyde in esophagus for 1 h, and then the injury of esophagus was observed.

The test system of data set [3] is gastric acid in pylorus ligated rats. Kind of data set: Inhibition effects on gastric acid in pylorus ligated rats. The format is in vivo, Wistar rats. The settings on record: for Inhibition effect on the gastric acid secretion in pylorus ligated rats (conclusion): in comparison with the solvent group. Here is the method:
Experimental animals: six-week old clean Wistar rats, male, 140-180 g.
Experimental samples: part of the compounds of the present invention, which structural formula and chemical name are shown in Table 1. […] Before test, these compounds were dissolved with physiological saline.
Pylorus was ligated by passing a suture beneath gastric pylorus, the drugs were immediately administered through duodenum, in which the solvent group was administered with physiological saline in 2 mL/kg, […] The animals were executed after 6 h, laparotomized, esophagus was ligated near to diaphragmatic muscle, whole stomach was taken out, washed to remove blood, stomach contents were poured out, the acidity degree of gastric acid was tested with pH test paper, the stomach contents was then centrifuged at 3000 rpm for 10 min. The volume of the supernatant was metered, and 1 mL of the supernatant was titrated with 0.01 mol/L NaOH solution, phenolphthalein was used as indicator, the volume of NaOH was recorded, and the total acidity degree and total acid output of gastric juice were calculated. Gastric juice total acidity degree (mmol/L)=consumed volume of NaOH solution (mL)*0.01 mol/L (NaOH concentration)/1 mL (supernatant volume)*1000; 1 h total acid output (mmol/h)=total acidity degree (mmol/L)*gastric juice volume (mL)/6 h/1000.

The mark [4] stands for this setting: Table 3, 20 mg/kg through duodenum, 6 h after pylorus ligation.
[5] abbreviates: Table 3, 20 mg/kg through duodenum, 6 h after pylorus ligation, average ± SD.
[6] abbreviates: Table 4, 30 mg/kg through duodenum, 6 h.
The mark [7] stands for this setting: Table 4, 30 mg/kg through duodenum, 6 h, SD in neighbouring cell.
The mark [8] stands for this setting: Table 5, 20 mg/kg, comparison with Compound 81 as control.
Where [9] appears, read: male, Wistar, rat, in vivo, 5 mg/kg.
Where [10] appears, read: male, Wistar, rat, in vivo, po, 5 mg/kg.

Where “and” joins values, the source holds several entries; their conditions need not be identical. Equal entries are not always repeated. Structures can show the parent of a compound that is named as a salt. Where two headings read alike, the source gives them in different places.

Broadly, the bioavailability is dose-corrected exposure relative to a reference, in per cent. As a reminder, the Cmax is the peak of the concentration-time curve. What is called Tmax is the time from dosing to the highest level.

Turning to `COCCCOc1ccnc(C[S+]([O-])c2nc3cc4c(cc3[nH]2)OCC4)c1C` (stereo not shown) [Compound 1 (sodium salt)], in data set [1] (male, Wistar, rat, plasma, rats, I.V, 5 mg/kg, read-out: CL (converted)), the clearance is 32.5 mL/min/kg. For the same compound, the half-life in data set [1] (male, Wistar, rat, plasma, rats, I.V, 5 mg/kg, read-out: T½ (converted)) was 10.3 min. The Vd in data set [1] (male, Wistar, rat, plasma, rats, I.V, 5 mg/kg, read-out: Vss) was found to be 0.255 L/kg. The bioavailability in data set [1] (male, Wistar, rat, plasma, po, rats, P.O 5 mg/kg vs I.V 5 mg/kg, read-out: F % (absolute bioavailability)) amounted to 26.2%. Also, in data set [1] (male, Wistar, rat, plasma, po, rats, P.O, 5 mg/kg, read-out: AUCinf), the AUC(0-inf) stood at 677 ng·h/mL. In data set [1] (male, Wistar, rat, plasma, po, rats, P.O, 5 mg/kg, read-out: Cmax), the peak concentration (Cmax) turned out to be 1860 ng/mL. Moreover, the Tmax in data set [1] (male, Wistar, rat, plasma, po, rats, P.O, 5 mg/kg, read-out: Tmax) lay in the range of 4.98 to 15 min. Moreover, the Esophagitis index in data set [2] was determined as 0.00 ± 0.00. Also, the Esophagus injury score in data set [2] (female rats) and in data set [2] (male rats) was 0 throughout. The Injury status result in data set [2] (female rats) and in data set [2] (male rats) was “Normal” in each case. The Gastric juice volume in data set [3] (setting [4]) was 3.33 ± 0.97 mL; in data set [3] (setting [6]), 3.60 ± 0.88 mL. The Total acid output in data set [3] (setting [4]) came out at 0.0276 ± 0.0194 mmol/h; in data set [3] (setting [7]), 0.0141 mmol/h. For the same compound, the figures for the Total acidity degree in data set [3] (setting [4]), in data set [3] (setting [7]) and in data set [3] (setting [8]) were 47.85 ± 24.38 mmol/L, 28.98 mmol/L and 54.52 ± 13.87 mmol/L, respectively. For the same compound, the results for the “Acidity degree (pH value)” value in data set [3] (setting [5]) and in data set [3] (setting [7]) were 3.14 ± 1.31 pH value and 3.90 pH value, respectively. For the same compound, the “Volume of supernatant of gastric juice” value in data set [3] (setting [6]) came out at 2.92 ± 0.71 mL.

`COCCCOc1ccnc(C[S+]([O-])c2nc3cc4c(cc3[nH]2)OCCO4)c1C` (stereo not shown) [Compound 6 (sodium salt)]: in data set [2], the Esophagitis index is listed as 3.00 ± 1.27. The Esophagus injury score in data set [2] (20 mg/kg, female rats) was 4 (4 scores for injury area exceeding 75% or perforation) and 2 (2 scores for injury area of 25-50%) and 1 (1 score for injury area of 1-25%). Besides, the Esophagus injury score in data set [2] (20 mg/kg, male rats) was 3 (3 scores for injury area of 50-75%) and 4 (4 scores for injury area exceeding 75% or perforation) (2×). In data set [3] (setting [4]), this compound registered a Gastric juice volume of 10.28 mL, a Total acid output of 0.0807 mmol/h and a Total acidity degree of 103.16 mmol/L. Besides, the “Acidity degree (pH value)” value in data set [3] (setting [5]) is reported as 1.82 pH value.

Turning to `COCCCOc1ccnc(C[S+]([O-])c2nc3cc4c(cc3[nH]2)OCCO4)c1C` (stereo not shown) [Compound 6, 2-[[4-(3-methoxylpropoxy)-3-methylpyridin-2-yl]methylsulfinyl]-6,7-dihydro-1H-[1,4]dioxino[2,3-f]benzo[d]imidazole], the “Protection effect on reflux esophagitis in rats (conclusion)” value in data set [2] (20 mg/kg) is listed as “no protection effect”. Moreover, the “Inhibition effect on the gastric acid secretion in pylorus ligated rats (conclusion)” value in data set [3] (20 mg/kg) is on record as “do not show inhibition effect”.

With `COc1c(C)cnc(C[S+]([O-])c2nc3cc4[nH]cnc4cc3[nH]2)c1C` (stereo not shown) [Compound 8, 2-[(3,5-dimethyl-4-methoxylpyridin-2-yl)methylsulfinyl]-1H,5H-imidazo[5,4-f]benzo[d]imidazole], in data set [3] (20 mg/kg), the “Inhibition effect on the gastric acid secretion in pylorus ligated rats (conclusion)” value is “do not show inhibition effect”. In addition, in data set [3] (setting [4]), the Gastric juice volume stood at 6.10 mL, the Total acid output is 0.1242 mmol/h and the Total acidity degree is recorded as 120.92 mmol/L. Besides, the “Acidity degree (pH value)” value in data set [3] (setting [5]) was found to be 1.71 pH value.

With `COCCCOc1ccnc(C[S@+]([O-])c2nc3cc4c(cc3[nH]2)OCC4)c1C` [Compound 29, (S)-2-[[[4-(3-methoxylpropoxy)-3-methyl-2-pyridyl]methyl]sulfinyl]-6,7-dihydro-3H-benzofuro[5,6-d]imidazole], in data set [1] (male, Wistar, rat, in vivo, rats, I.V, 5 mg/kg, read-out: CL (converted)), the clearance is 21.4 mL/min/kg. In addition, the half-life in data set [1] (male, Wistar, rat, in vivo, rats, I.V, 5 mg/kg, read-out: T½ (converted)) is 13.4 min. Further, the Vd in data set [1] (male, Wistar, rat, in vivo, rats, I.V, 5 mg/kg, read-out: Vss) was found to be 0.289 L/kg. In data set [1] (male, Wistar, rat, in vivo, po, rats, P.O 5 mg/kg vs I.V 5 mg/kg, read-out: F % (absolute bioavailability)), the bioavailability came to 49.2%. Further, in data set [1] (male, Wistar, rat, in vivo, po, rats, P.O, 5 mg/kg, read-out: AUCinf), the AUC(0-inf) came to 1740 ng·h/mL. Also, in data set [1] (male, Wistar, rat, in vivo, po, rats, P.O, 5 mg/kg, read-out: Cmax), the Cmax stood at 5780 ng/mL. Moreover, the time to peak (Tmax) in data set [1] (male, Wistar, rat, in vivo, po, rats, P.O, 5 mg/kg, read-out: Tmax) stood at 4.98 min. Besides, the “apparent oral clearance (CL/F)” value in data set [1] (rats, P.O, 5 mg/kg) is reported as 3.226 L/kg/h. Further, in data set [1] (rats), the “In vivo pharmacokinetic properties (conclusion)” value is on record as “good in vivo pharmacokinetic properties”. In data set [3] (setting [6]), the Gastric juice volume came to 3.43 ± 1.11 mL and the “Volume of supernatant of gastric juice” value is listed as 2.70 ± 1.04 mL. In data set [3] (setting [7]), the “Acidity degree (pH value)” value was found to be 3.75 pH value, the Total acid output turned out to be 0.0178 mmol/h and the Total acidity degree is reported as 37.85 mmol/L.

In data set [1] (setting [9]), `COCCCOc1ccnc(C[S@@+]([O-])c2nc3cc4c(cc3[nH]2)OCC4)c1C` [Compound 30 (sodium salt), (R)-2-[[[4-(3-methoxylpropoxy)-3-methyl-2-pyridyl]methyl]sulfinyl]-6,7-dihydro-3H-benzofuro[5,6-d]imidazole sodium] had a Vd of 0.394 L/kg, a clearance of 26.5 mL/min/kg and a half-life of 16.5 min. In addition, in data set [1] (setting [10]), the AUC(0-inf) amounted to 1260 ng·h/mL, the CL came out at 5.01 L/kg/h, the maximum concentration (Cmax) turned out to be 3250 ng/mL and the Tmax was in the range of 4.98 to 15 min. The compound also returned a bioavailability in data set [1] (setting [10]) of 39.3%. In addition, in data set [3] (setting [6]), the Gastric juice volume is 3.60 ± 1.30 mL and the “Volume of supernatant of gastric juice” value turned out to be 2.87 ± 1.17 mL. In addition, in data set [3] (setting [7]), the “Acidity degree (pH value)” value turned out to be 6.08 pH value, the Total acid output amounted to 0.0076 mmol/h and the Total acidity degree was found to be 17.21 mmol/L.

Regarding `COCCCOc1ccnc(C[S@@+]([O-])c2nc3cc4c(cc3[nH]2)OCC4)c1C` [Compound 30, (R)-2-[[[4-(3-methoxylpropoxy)-3-methyl-2-pyridyl]methyl]sulfinyl]-6,7-dihydro-3H-benzofuro[5,6-d]imidazole], in data set [1] (rats), the “In vivo pharmacokinetic properties (conclusion)” value is listed as “good in vivo pharmacokinetic properties”.

`COc1c(C)cnc(C[S+]([O-])c2nc3cc4c(cc3[nH]2)OCO4)c1C` (stereo not shown) [Compound 81, reference compound]: the Esophagitis index in data set [2] was found to be 0.83 ± 1.60. Besides, in data set [2] (20 mg/kg), the “Protection effect on reflux esophagitis in rats (conclusion)” value is “no protection effect” and the Injury status result was “Normal”. Besides, the Esophagus injury score in data set [2] (20 mg/kg, female rats) is 0 (2×) and 1 (1 score for injury area of 1-25%). In addition, the Esophagus injury score in data set [2] (20 mg/kg, male rats) is 4 (4 scores for injury area exceeding 75% or perforation) and 0 (2×). Further, in data set [3] (setting [8]), the Total acidity degree was 71.27 ± 16.51 mmol/L.

The record behind these values is patent publication US9315513B2, “Benzimidazole derivatives and their pharmaceutical compositions and uses” (XUANZHU PHARMA CO., LTD., priority 2010, dated 2016).
